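1) Cells in 96-well plates. 2) Compound, 48 h, 5 concentrations. 3) Linear interpolation between surrounding doses. 4) Unreached endpoint = highest concentration. The concentration for 50% growth inhibition is given as GI50. TGI denotes the concentration required for complete inhibition of growth.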
What was measured:
Experiment in all cases: NCI tumour cell line growth inhibition, 48 h
[1] = tested on: BT-549 breast
[2] = tested on: T-47D breast
[3] = tested on: U251 CNS
[4] = tested on: IGROV1 ovarian
[5] = tested on: HOP-62 NSCLC
[6] = tested on: ACHN renal
[7] = tested on: SK-OV-3 ovarian
[8] = tested on: COLO 205 colon
[9] = tested on: NCI-H522 lung
[10] = tested on: MALME-3M melanoma
[11] = tested on: OVCAR-4 ovarian
[12] = tested on: UACC-257 melanoma
[13] = tested on: SNB-75 CNS
[14] = tested on: OVCAR-3 ovarian
[15] = tested on: KM12 colon
[16] = tested on: HS 578T breast
[17] = tested on: SK-MEL-5 melanoma
[18] = tested on: PC-3 prostate
[19] = tested on: SF-539 CNS
[20] = tested on: RPMI-8226 leukemia
[21] = tested on: OVCAR-8 ovarian
[22] = tested on: HCT-15 colon
[23] = tested on: SK-MEL-28 melanoma
[24] = tested on: HOP-92 NSCLC
[25] = tested on: SR leukemia
[26] = tested on: UACC-62 melanoma
[27] = tested on: HCC-2998 colon
[28] = tested on: EKVX NSCLC
[29] = tested on: SF-268 CNS
[30] = tested on: CCRF-CEM leukemia
[31] = tested on: HCT-116 colon
[32] = tested on: OVCAR-5 ovarian
[33] = tested on: RXF 393 renal
[34] = tested on: MCF7 breast
[35] = tested on: SW-620 colon
[36] = tested on: MOLT-4 leukemia
[37] = tested on: SNB-19 CNS
[38] = tested on: NCI-H460 lung
[39] = tested on: TK-10 renal
[40] = tested on: CAKI-1 renal
[41] = tested on: MDA-MB-435
[42] = tested on: DU-145 prostate
[43] = tested on: SK-MEL-2 melanoma
[44] = tested on: HL-60(TB) leukemia
[45] = tested on: LOX IMVI melanoma
[46] = tested on: M14 melanoma
[47] = tested on: MDA-MB-231 breast
[48] = tested on: SF-295 CNS
[49] = tested on: HT29 colon
[50] = tested on: NCI-H226 lung
[51] = tested on: NCI/ADR-RES ovarian
[52] = tested on: NCI-H23 lung
[53] = tested on: A498 renal
[54] = tested on: SN12C renal
[55] = tested on: 786-0 renal

C[C@@H](O)[C@H]1C(=O)N2C(C(=O)O)=C(SCCN=CN)C[C@H]12
GI50 [1]: 2330 nM
TGI [1]: 7.6 µM
GI50 [2]: 2650 nM
TGI [2]: 9.34 µM
GI50 [3]: 2340 nM
TGI [3]: 10.9 µM
GI50 [4]: 1470 nM
TGI [4]: 9.06 µM
GI50 [5]: 1850 nM
TGI [5]: 5.82 µM
GI50 [6]: 1470 nM
TGI [6]: 5.8 µM
GI50 [7]: 1380 nM
TGI [7]: 15.8 µM
GI50 [8]: 1380 nM
TGI [8]: 3.22 µM
GI50 [9]: 1580 nM
TGI [9]: 4.12 µM
GI50 [10]: 1690 nM
TGI [10]: 3.33 µM
GI50 [11]: 2210 nM
TGI [11]: 6.41 µM
GI50 [12]: 1800 nM
TGI [12]: 3.78 µM
GI50 [13]: 2120 nM
TGI [13]: 5.1 µM
GI50 [14]: 2950 nM
TGI [14]: 84.1 µM
GI50 [15]: 1480 nM
TGI [15]: 11.4 µM
GI50 [16]: 2690 nM
TGI [16]: 28.3 µM
GI50 [17]: 1560 nM
TGI [17]: 2930 nM
GI50 [18]: 2230 nM
TGI [18]: 7.27 µM
GI50 [19]: 2250 nM
TGI [19]: 6.35 µM
GI50 [20]: 1900 nM
TGI [20]: 6.71 µM
GI50 [21]: 1580 nM
TGI [21]: 32.5 µM
GI50 [22]: 2960 nM
TGI [22]: 11.1 µM
GI50 [23]: 1860 nM
TGI [23]: 3.69 µM
GI50 [24]: 1800 nM
TGI [24]: 5.2 µM
GI50 [25]: 1560 nM
TGI [25]: 4.94 µM
GI50 [26]: 1720 nM
TGI [26]: 3.33 µM
GI50 [27]: 1810 nM
TGI [27]: 3.89 µM
GI50 [28]: 1250 nM
TGI [28]: 8.61 µM
GI50 [29]: 1730 nM
TGI [29]: 5.36 µM
GI50 [30]: 1660 nM
TGI [30]: 5.73 µM
GI50 [31]: 1430 nM
TGI [31]: 6.04 µM
GI50 [32]: 2910 nM
TGI [32]: 9.44 µM
GI50 [33]: 1550 nM
TGI [33]: 3.58 µM
GI50 [34]: 2890 nM
TGI [34]: 11.2 µM
GI50 [35]: 744 nM
TGI [35]: 10.4 µM
GI50 [36]: 2320 nM
TGI [36]: 6.26 µM
GI50 [37]: 2190 nM
TGI [37]: 8.49 µM
GI50 [38]: 1580 nM
TGI [38]: 5.73 µM
GI50 [39]: 4.33 µM
TGI [39]: > 100 µM
GI50 [40]: 2130 nM
TGI [40]: 5.39 µM
GI50 [41]: 2380 nM
TGI [41]: 6.01 µM
GI50 [42]: 2560 nM
TGI [42]: 11.7 µM
GI50 [43]: 2540 nM
TGI [43]: 7.7 µM
GI50 [44]: 2450 nM
TGI [44]: 6.15 µM
GI50 [45]: 1440 nM
TGI [45]: 3.97 µM
GI50 [46]: 1860 nM
TGI [46]: 3.52 µM
GI50 [47]: 2160 nM
TGI [47]: 8.04 µM
GI50 [48]: 2670 nM
TGI [48]: 7.5 µM
GI50 [49]: 3.1 µM
TGI [49]: 18.3 µM
GI50 [50]: 1550 nM
TGI [50]: 3.52 µM
GI50 [51]: 1850 nM
TGI [51]: 6.22 µM
GI50 [52]: 1810 nM
TGI [52]: 4.78 µM
GI50 [53]: 853 nM
TGI [53]: 2440 nM
GI50 [54]: 971 nM
TGI [54]: 9.47 µM
GI50 [55]: 2980 nM
TGI [55]: 11 µM

Source: PubChem BioAssay (NCI)
